These results are taken from the NIST ThermoML archive (doi:10.1016/j.jct.2015.11.016).

Data set [1] in a line: xn = mol fraction of the nth substance listed. The note with it: 298.15 K, 100 kPa, Liquid, Vibrating tube method.
For data set [2] the following is noted: 298.15 K; 101.33 kPa; Liquid; Vibrating tube method.

Numbers after ± are expanded uncertainties.

Take `CCCC[N+]1(C)CCCC1.N#CN=C=[N-]` [1-butyl-1-methylpyrrolidinium dicyanamide] + CCCCCCCC: the mass density (commonly mass per unit of volume) in data set [1] (x2 = 0.01) is reported as 1012.4 ± 6.1 kg/m3.

In the case of `CCCCCCCC` [octane], in data set [2], the mass density amounted to 698.86 ± 2 kg/m3.

Take `CCCCCCCCCC` [decane]: the mass density in data set [2] was 726.15 ± 2 kg/m3.

As for `CCCC[N+]1(C)CCCC1.N#CN=C=[N-]` [1-butyl-1-methylpyrrolidinium dicyanamide] + c1ccccc1, the mass density in data set [1] (x2 = 0.706) came to 964.75 ± 6.2 kg/m3.

`CCCC[N+]1(C)CCCC1.N#CN=C=[N-]` [1-butyl-1-methylpyrrolidinium dicyanamide]: the mass density in data set [2] came out at 1014.47 ± 6 kg/m3.

As for `c1ccccc1` [benzene], the mass density in data set [2] was found to be 873.71 ± 2 kg/m3.
